In ChEMBL document CHEMBL6127034, “Design, synthesis and biological evaluation of a novel PAK1 degrader for the treatment of triple negative breast cancer” (Bioorg Med Chem, 2024):

Key:
[1] = tested on: MDA-MB-231; test: Inhibition of cell migration in human MDA-MB-231 cells assessed as increase in E-Cadherin level by Western blot analysis; assay type: functional, cell-based; conditions: time <= 48.0 hrs, TDE = time-dependent effect
[2] = tested on: MDA-MB-231; test: Inhibition of formation of human MDA-MB-231 cells tumor sphere by crystal violet staining based analysis; assay type: functional, cell-based; conditions: time <= 48.0 hrs, TDE = time-dependent effect

SMILES: Cc1ncsc1-c1ccc([C@H](C)NC(=O)[C@@H]2C[C@@H](O)CN2C(=O)[C@@H](NC(=O)CCc2cn(CCCCCCCn3c(=O)c(-c4ccc(Cl)cc4Cl)cc4cnc(NC5CC5)nc43)nn2)C(C)(C)C)cc1
- inhibition [1]: Tde
- inhibition [2]: Tde
